In the NIST ThermoML archive (doi:10.1016/j.jct.2012.12.001):
“And” between values parts separate entries of the source, which are not always exact repeats. Equal entries are not always repeated.

Assay: heat capacity at constant pressure per volume; xn = mol fraction of the nth substance listed
Settings: 101 kPa, Liquid, DSC, x2 = 0.695

CCCCCCCCCCCCCCCCC [heptadecane] + N#Cc1ccccc1
Settings | heat capacity
319 K | 1720700 J/K/m3
319.1 K | 1720600 J/K/m3
319.2 K | 1720500 J/K/m3
319.3 K | 1720600 J/K/m3
319.5 K | 1721300 J/K/m3
319.6 K | 1721200 J/K/m3
319.7 K | 1720900 J/K/m3
319.8 K | 1720700 J/K/m3
319.9 K | 1720500 J/K/m3
320 K | 1720400 J/K/m3
320.1 K | 1720500 J/K/m3
320.2 K | 1720300 J/K/m3
320.3 K | 1720800 J/K/m3
320.4 K | 1720700 J/K/m3
320.5 K | 1720400 J/K/m3
320.61 K | 1720200 J/K/m3
320.7 K | 1720000 J/K/m3
320.8 K | 1720000 J/K/m3
320.9 K | 1719900 J/K/m3
321 K | 1720300 J/K/m3
321.1 K | 1720600 J/K/m3
321.2 K | 1720600 J/K/m3
321.3 K | 1720600 J/K/m3
321.4 K | 1720400 J/K/m3
321.5 K | 1720000 J/K/m3
321.61 K | 1719900 J/K/m3
321.7 K | 1720100 J/K/m3
321.8 K | 1720100 J/K/m3
321.89 K | 1720400 J/K/m3
322 K | 1720500 J/K/m3
322.1 K | 1720500 J/K/m3
322.2 K | 1720100 J/K/m3
322.3 K | 1720100 J/K/m3
322.4 K | 1720300 J/K/m3
322.5 K | 1720600 J/K/m3
322.6 K | 1720600 J/K/m3
322.7 K | 1720800 J/K/m3
322.81 K | 1721200 J/K/m3
322.9 K | 1720800 J/K/m3
323 K | 1720200 J/K/m3
323.11 K | 1720200 J/K/m3
323.2 K | 1720100 J/K/m3
323.3 K | 1720100 J/K/m3
323.4 K | 1720200 J/K/m3
323.5 K | 1720700 J/K/m3
323.6 K | 1720800 J/K/m3
323.7 K | 1720800 J/K/m3
323.8 K | 1720500 J/K/m3
323.9 K | 1720400 J/K/m3
324 K | 1720200 J/K/m3
324.1 K | 1720200 J/K/m3
324.2 K | 1720200 J/K/m3
324.3 K | 1720300 J/K/m3
324.4 K | 1720500 J/K/m3
324.5 K | 1720500 J/K/m3
324.6 K | 1720500 J/K/m3
324.7 K | 1720600 J/K/m3
324.8 K | 1720600 J/K/m3
324.9 K | 1720400 J/K/m3
325 K | 1720700 J/K/m3
325.1 K | 1720700 J/K/m3
325.2 K | 1720400 J/K/m3
325.3 K | 1719500 J/K/m3
325.4 K | 1720300 J/K/m3
325.5 K | 1720500 J/K/m3
325.6 K | 1720300 J/K/m3
325.7 K | 1720400 J/K/m3
325.8 K | 1720200 J/K/m3
325.9 K | 1720200 J/K/m3
326 K | 1720600 J/K/m3
326.1 K | 1720900 J/K/m3
326.2 K | 1720900 J/K/m3
326.3 K | 1720900 J/K/m3
326.4 K | 1720400 J/K/m3
326.5 K | 1720200 J/K/m3
326.6 K | 1720300 J/K/m3
326.7 K | 1720400 J/K/m3
326.8 K | 1720400 J/K/m3
326.9 K | 1720700 J/K/m3
327 K | 1721000 J/K/m3
327.1 K | 1721000 J/K/m3
327.2 K | 1721100 J/K/m3
327.3 K | 1720800 J/K/m3
327.41 K | 1720500 J/K/m3
327.5 K | 1720400 J/K/m3
327.6 K | 1720500 J/K/m3
327.7 K | 1721000 J/K/m3
327.8 K | 1721200 J/K/m3
327.9 K | 1720800 J/K/m3
328 K | 1720800 J/K/m3
328.1 K | 1720800 J/K/m3
328.2 K | 1720900 J/K/m3
328.3 K | 1720700 J/K/m3
328.4 K | 1720800 J/K/m3
328.5 K | 1721000 J/K/m3
328.6 K | 1721500 J/K/m3
328.7 K | 1721400 J/K/m3
328.8 K | 1721200 J/K/m3
328.9 K | 1721300 J/K/m3
329 K | 1720900 J/K/m3
329.1 K | 1720900 J/K/m3
329.2 K | 1720800 J/K/m3
329.3 K | 1720700 J/K/m3
329.4 K | 1721000 J/K/m3
329.5 K | 1721100 J/K/m3
329.61 K | 1721300 J/K/m3
329.7 K | 1721300 J/K/m3
329.8 K | 1721400 J/K/m3
329.9 K | 1721400 J/K/m3
330 K | 1721300 J/K/m3
330.1 K | 1722000 J/K/m3
330.2 K | 1722500 J/K/m3
330.3 K | 1722400 J/K/m3
330.4 K | 1722100 J/K/m3
330.5 K | 1721600 J/K/m3
330.61 K | 1721600 J/K/m3
330.7 K | 1721300 J/K/m3
330.8 K | 1721300 J/K/m3
330.9 K | 1721300 J/K/m3
331 K | 1721500 J/K/m3
331.1 K | 1721700 J/K/m3
331.2 K | 1721500 J/K/m3
331.3 K | 1721200 J/K/m3
331.4 K | 1721400 J/K/m3
331.5 K | 1721300 J/K/m3
331.6 K | 1721300 J/K/m3
331.7 K | 1721500 J/K/m3
331.81 K | 1721700 J/K/m3
331.9 K | 1722000 J/K/m3
332 K | 1722000 J/K/m3
332.1 K | 1721900 J/K/m3
332.2 K | 1722100 J/K/m3
332.3 K | 1722100 J/K/m3
332.4 K | 1722000 J/K/m3
332.5 K | 1722000 J/K/m3
332.6 K | 1722200 J/K/m3
332.7 K | 1722600 J/K/m3
332.8 K | 1722700 J/K/m3
332.9 K | 1722700 J/K/m3
333 K | 1722600 J/K/m3
333.1 K | 1722200 J/K/m3
333.2 K | 1721900 J/K/m3
333.31 K | 1721900 J/K/m3
333.4 K | 1722000 J/K/m3
333.5 K | 1722000 J/K/m3
333.6 K | 1722200 J/K/m3
333.7 K | 1722700 J/K/m3
333.8 K | 1722800 J/K/m3
333.9 K | 1722600 J/K/m3
334 K | 1722600 J/K/m3
334.1 K | 1722700 J/K/m3
334.2 K | 1722600 J/K/m3
334.3 K | 1722900 J/K/m3
334.4 K | 1723400 J/K/m3
334.5 K | 1723900 J/K/m3
334.6 K | 1723800 J/K/m3
334.7 K | 1723400 J/K/m3
334.8 K | 1723000 J/K/m3
334.9 K | 1722900 J/K/m3
335 K | 1723100 J/K/m3
335.1 K | 1723300 J/K/m3
335.2 K | 1723600 J/K/m3
335.3 K | 1723700 J/K/m3
335.4 K | 1723700 J/K/m3
335.5 K | 1723700 J/K/m3
335.6 K | 1723600 J/K/m3
335.7 K | 1723500 J/K/m3
335.8 K | 1723300 J/K/m3
335.9 K | 1723400 J/K/m3
336 K | 1723600 J/K/m3
336.1 K | 1723400 J/K/m3
336.2 K | 1723600 J/K/m3
336.3 K | 1723200 J/K/m3
336.4 K | 1723100 J/K/m3
336.5 K | 1723300 J/K/m3
336.6 K | 1723400 J/K/m3
336.7 K | 1723700 J/K/m3
336.8 K | 1724100 J/K/m3
336.9 K | 1724400 J/K/m3
337 K | 1724100 J/K/m3
337.1 K | 1724200 J/K/m3
337.18 K | 1724100 J/K/m3
337.32 K | 1723700 J/K/m3
337.43 K | 1723700 J/K/m3
337.52 K | 1724100 J/K/m3
337.6 K | 1724300 J/K/m3
337.73 K | 1724500 J/K/m3
337.8 K | 1724400 J/K/m3
337.9 K | 1724900 J/K/m3
338 K | 1724800 J/K/m3
338.01 K | 1724800 J/K/m3
338.02 K | 1724900 J/K/m3
338.03 K | 1724900 J/K/m3
338.45 K | 1724800 J/K/m3 and 1724900 J/K/m3
338.53 K | 1725300 J/K/m3
338.58 K | 1725400 J/K/m3
338.59 K | 1725200 J/K/m3
338.6 K | 1725300 J/K/m3
338.62 K | 1725200 J/K/m3
339 K | 1724600 J/K/m3 and 1724700 J/K/m3
339.01 K | 1724600 J/K/m3 and 1724500 J/K/m3
339.1 K | 1724700 J/K/m3 and 1724600 J/K/m3
339.11 K | 1724700 J/K/m3 and 1724800 J/K/m3
339.13 K | 1724700 J/K/m3
339.2 K | 1725100 J/K/m3
